Test results published in publication PMC12090182, “Repurposing of the RIPK1-Selective Benzo[1,4]oxazepin-4-one Scaffold for the Development of a Type III LIMK1/2 Inhibitor” (ACS Chemical Biology, 2025).

Tested on: MRC-9 cells
Test: Multiplex high-content viability assessment
Format: cell-based
Conditions: human fibroblast
Description: To assess the influence on cell health, a high-content screening in living cells called the multiplex high-content assay, as described previously by Tjaden et al., was performed.[38] In brief, HEK293T (ATCC CRL-1573) and U2OS (ATCCHTB-96) were cultured in DMEM plus L-glutamine (high glucose) supplemented by 10% FBS (Gibco) and penicillin/streptomycin (Gibco). MRC-9 fibroblasts ([…]) were cultured in EMEM plus L-glutamine supplemented by 10% FBS (Gibco) and penicillin/streptomycin (Gibco). Cells were seeded at a density of 1250 cells per well in a 384-well plate in a culture medium (cell culture microplate, PS, f-bottom, μClear, 781091, Greiner), with a volume of 50 μL per well. All outer wells were filled with 100 μL of PBS buffer (Gibco). […] The cell shape and fluorescence were measured before treatment and 12, 24, and 48 h after compound treatment using the CQ1 high-content confocal microscope (Yokogawa, Musashino, Japan). […] The compounds were tested at 1 and 10 μM, respectively. Acquired images of the cells were processed using Yokogawa CellPathfinder software (v3.04.02.02). […] Results were normalized to cells exposed to 0.1% DMSO. All compounds were tested in biological duplicates, and SEM (standard error of mean) was calculated of biological duplicates.

[1] = 1 µM, 0 h after treatment, biological replicate 1
[2] = 1 µM, 0 h after treatment, biological replicate 2
[3] = 1 µM, 12 h after treatment, biological replicate 1
[4] = 1 µM, 12 h after treatment, biological replicate 2
[5] = 1 µM, 24 h after treatment, biological replicate 1
[6] = 1 µM, 24 h after treatment, biological replicate 2
[7] = 1 µM, 48 h after treatment, biological replicate 1
[8] = 1 µM, 48 h after treatment, biological replicate 2
[9] = 10 µM, 0 h after treatment, biological replicate 1
[10] = 10 µM, 0 h after treatment, biological replicate 2
[11] = 10 µM, 12 h after treatment, biological replicate 1
[12] = 10 µM, 12 h after treatment, biological replicate 2
[13] = 10 µM, 24 h after treatment, biological replicate 1
[14] = 10 µM, 24 h after treatment, biological replicate 2
[15] = 10 µM, 48 h after treatment, biological replicate 1
[16] = 10 µM, 48 h after treatment, biological replicate 2

## CC(C)C(=O)Nc1ncc(C(=O)NCCN(Cc2ccccc2)C(=O)c2ccc(S(=O)(=O)Nc3ccccc3)cc2)s1 [TH470]
[1]
  Cell count normalized to cells treated with DMSO control: 0.8608
  Cell count per well: 129
  Population Fragmented Nuclei (%): 29.31%
  Population Healthy Nuclei (%): 61.21%
  Population Pyknosed Nuclei (%): 9.48%
  Population apoptotic cell (%): 36.36%
  Population cell that influence microtubule strucutre (%): 19.72%
  Population with increased mitochondrial mass (%): 8.45%
  Population with membrane disruption (%): 1.41%
[2]
  Cell count normalized to cells treated with DMSO control: 0.9307
  Cell count per well: 166
  Population Fragmented Nuclei (%): 25.00%
  Population Healthy Nuclei (%): 44.23%
  Population Pyknosed Nuclei (%): 30.77%
  Population apoptotic cell (%): 35.42%
  Population cell that influence microtubule strucutre (%): 44.93%
  Population with increased mitochondrial mass (%): 11.59%
  Population with membrane disruption (%): 10.14%
[3]
  Cell count normalized to cells treated with DMSO control: 0.8102
  Cell count per well: 122
  Population Fragmented Nuclei (%): 23.93%
  Population Healthy Nuclei (%): 62.39%
  Population Pyknosed Nuclei (%): 13.68%
  Population apoptotic cell (%): 43.75%
  Population cell that influence microtubule strucutre (%): 27.40%
  Population with increased mitochondrial mass (%): 4.11%
  Population with membrane disruption (%): 2.74%
[4]
  Cell count normalized to cells treated with DMSO control: 0.8825
  Cell count per well: 147
  Population Fragmented Nuclei (%): 34.51%
  Population Healthy Nuclei (%): 42.25%
  Population Pyknosed Nuclei (%): 23.24%
  Population apoptotic cell (%): 36.36%
  Population cell that influence microtubule strucutre (%): 73.33%
  Population with increased mitochondrial mass (%): 13.33%
  Population with membrane disruption (%): 15.00%
[5]
  Cell count normalized to cells treated with DMSO control: 0.8356
  Cell count per well: 126
  Population Fragmented Nuclei (%): 27.27%
  Population Healthy Nuclei (%): 57.02%
  Population Pyknosed Nuclei (%): 15.70%
  Population apoptotic cell (%): 63.16%
  Population cell that influence microtubule strucutre (%): 34.78%
  Population with increased mitochondrial mass (%): 4.35%
  Population with membrane disruption (%): 1.45%
[6]
  Cell count normalized to cells treated with DMSO control: 0.9099
  Cell count per well: 150
  Population Fragmented Nuclei (%): 42.18%
  Population Healthy Nuclei (%): 40.82%
  Population Pyknosed Nuclei (%): 17.01%
  Population apoptotic cell (%): 56.00%
  Population cell that influence microtubule strucutre (%): 61.67%
  Population with increased mitochondrial mass (%): 10.00%
  Population with membrane disruption (%): 18.33%
[7]
  Cell count normalized to cells treated with DMSO control: 0.8239
  Cell count per well: 125
  Population Fragmented Nuclei (%): 33.87%
  Population Healthy Nuclei (%): 54.03%
  Population Pyknosed Nuclei (%): 12.10%
  Population apoptotic cell (%): 60.00%
  Population cell that influence microtubule strucutre (%): 41.79%
  Population with increased mitochondrial mass (%): 4.48%
  Population with membrane disruption (%): 1.49%
[8]
  Cell count normalized to cells treated with DMSO control: 0.9026
  Cell count per well: 147
  Population Fragmented Nuclei (%): 48.98%
  Population Healthy Nuclei (%): 42.18%
  Population Pyknosed Nuclei (%): 8.84%
  Population apoptotic cell (%): 69.23%
  Population cell that influence microtubule strucutre (%): 61.29%
  Population with increased mitochondrial mass (%): 16.13%
  Population with membrane disruption (%): 9.68%
[9]
  Cell count normalized to cells treated with DMSO control: 1.121
  Cell count per well: 168
  Population Fragmented Nuclei (%): 21.21%
  Population Healthy Nuclei (%): 57.58%
  Population Pyknosed Nuclei (%): 21.21%
  Population apoptotic cell (%): 25.71%
  Population cell that influence microtubule strucutre (%): 17.89%
  Population with increased mitochondrial mass (%): 6.32%
  Population with membrane disruption (%): 1.05%
[10]
  Cell count normalized to cells treated with DMSO control: 0.8074
  Cell count per well: 144
  Population Fragmented Nuclei (%): 27.54%
  Population Healthy Nuclei (%): 50.00%
  Population Pyknosed Nuclei (%): 22.46%
  Population apoptotic cell (%): 38.71%
  Population cell that influence microtubule strucutre (%): 49.28%
  Population with increased mitochondrial mass (%): 15.94%
  Population with membrane disruption (%): 2.90%
[11]
  Cell count normalized to cells treated with DMSO control: 1.202
  Cell count per well: 181
  Population Fragmented Nuclei (%): 19.88%
  Population Healthy Nuclei (%): 54.97%
  Population Pyknosed Nuclei (%): 25.15%
  Population apoptotic cell (%): 39.53%
  Population cell that influence microtubule strucutre (%): 77.66%
  Population with increased mitochondrial mass (%): 9.57%
  Population with membrane disruption (%): 3.19%
[12]
  Cell count normalized to cells treated with DMSO control: 0.9125
  Cell count per well: 152
  Population Fragmented Nuclei (%): 31.25%
  Population Healthy Nuclei (%): 34.03%
  Population Pyknosed Nuclei (%): 34.72%
  Population apoptotic cell (%): 54.00%
  Population cell that influence microtubule strucutre (%): 91.84%
  Population with increased mitochondrial mass (%): 14.29%
  Population with membrane disruption (%): 18.37%
[13]
  Cell count normalized to cells treated with DMSO control: 1.167
  Cell count per well: 176
  Population Fragmented Nuclei (%): 24.85%
  Population Healthy Nuclei (%): 52.66%
  Population Pyknosed Nuclei (%): 22.49%
  Population apoptotic cell (%): 57.89%
  Population cell that influence microtubule strucutre (%): 78.65%
  Population with increased mitochondrial mass (%): 19.10%
  Population with membrane disruption (%): 1.12%
[14]
  Cell count normalized to cells treated with DMSO control: 0.825
  Cell count per well: 136
  Population Fragmented Nuclei (%): 34.62%
  Population Healthy Nuclei (%): 32.31%
  Population Pyknosed Nuclei (%): 33.08%
  Population apoptotic cell (%): 44.19%
  Population cell that influence microtubule strucutre (%): 88.10%
  Population with increased mitochondrial mass (%): 19.05%
  Population with membrane disruption (%): 16.67%
[15]
  Cell count normalized to cells treated with DMSO control: 1.081
  Cell count per well: 164
  Population Fragmented Nuclei (%): 23.18%
  Population Healthy Nuclei (%): 54.97%
  Population Pyknosed Nuclei (%): 21.85%
  Population apoptotic cell (%): 48.48%
  Population cell that influence microtubule strucutre (%): 89.16%
  Population with increased mitochondrial mass (%): 22.89%
  Population with membrane disruption (%): 0.00%
[16]
  Cell count normalized to cells treated with DMSO control: 0.7798
  Cell count per well: 127
  Population Fragmented Nuclei (%): 44.35%
  Population Healthy Nuclei (%): 37.90%
  Population Pyknosed Nuclei (%): 17.74%
  Population apoptotic cell (%): 63.64%
  Population cell that influence microtubule strucutre (%): 89.36%
  Population with increased mitochondrial mass (%): 17.02%
  Population with membrane disruption (%): 17.02%
